Measurements as given in patent US20040180855A1, “Methods of treating thrombosis with reduced risk of increased bleeding times” (priority 2003, published 2004).

Key:
[1] = system: FeCl2-VT (vena cava thrombosis); assay: Venous thrombosis, vessel injury model (FeCl2-VT); assay type: in vivo; conditions: rat FeCl2-VT
Description: General Surgical Preparation Male Sprague Dawley rats (310 to 390 g) were anesthetized with Na-pentobarbital (50 mg/kg i.p.). The left jugular vein was cannulated with PE-50 tubing for drug administration, and the trachea was intubated with PE-205 tubing to ensure airway patency. In some animals, a carotid artery was cannulated with PE-50 tubing to obtain blood samples, and a procedure was followed as described in Schumacher et al., “Comparison of Thrombin Active-Site and Exosite Inhibitors and Heparin in Experimental Models of Arterial and Venous Thrombosis and Bleeding,” J. Pharmacol. Exp. Therap., Vol. 267 (1993), at pp. 1237-42; Schumacher et al., Effects of Antithrombotic Drugs in a Rat Model of Aspirin-Insensitive Arterial Thrombosis, Thromb Haemostasis, Vol. 69 (1993), at pp. 509-514; or Schumacher et al., Effect of a Novel Thrombin Active-Site Inhibitor on Arterial and Venous Thrombosis, Eur J Pharmacol., Vol. 259 (1994), at pp. 165-171, each of which is incorporated herein by reference. In each procedure, a small organic compound effective for inhibiting Factor XIa, as described herein, or saline vehicle, was administered i.v. as a loading infusion over 5 min plus a sustaining infusion that was maintained until the end of the procedure. Compound doses are indicated for each procedure in mg/kg plus mg/kg/hr. The volume of test article was 1 mL/kg plus 1 mL/kg/hr, except the 24 mg/kg+24 mg/kg/hr dose of compound where volume was doubled. […] Statistical Analysis In the venous and arterial thrombosis procedures, treatment effects on thrombus weight, baseline blood flow, and average blood flow during thrombosis were determined by analysis of variance with Dunnett's test for comparison to the vehicle group. […] Treatment effects on bleeding times were determined by analysis of variance with Dunnett's test for comparison to the vehicle group. Both post-treatment and pre-treatment bleeding times and the relative bleeding time increases in sec were analyzed. […]

rat plasma (ex vivo PT) = assay: Ex vivo clotting time PT; assay type: in vivo; conditions: loading plus sustaining i.v. infusion
Description: Ex Vivo Clotting Times Ex vivo clotting time assays were used to determine the level of anticoagulation achieved in the thrombosis and bleeding time procedures, described above. A small organic compound for inhibiting Factor XIa was administered at doses (mg/kg+mg/kg/hr) of 0.5+0.5 (n=3), 2+2 (n=4), 6+6 (n=3), 12+12 (n=3) and 24+24 (n=10). Carotid artery blood (0.6 mL drawn into 1/10 volume of 3.8% Na-citrate) was sampled before (0 min control) and at 5, 15, 30, 60 and 90 min after the start of the compound infusion. The APTT was determined in freshly prepared plasma from each sample using the standard procedure for Dade Actin FSL reagent (Baxter Healthcare Corp., Miami, Fla.). The PT was determined in some animals from the 6+6 (n=3), 12+12 (n=3) and 24+24 (n=2) dose groups using Dade Thromboplastin●C reagent.
Plasma was sampled before (0 min control) and after the infusion, at intervals of 5, 15, 30, 60 and 90 min after initiating the infusion. Average APTT increases over the 15-90 min period, an interval most applicable to thrombosis and bleeding time protocols, were calculated. Control APTT values averaged 19.9±1.3 seconds overall. The PT was unaltered as expected from in vitro results. […] The range of efficacious doses in venous and arterial thrombosis (2+2, 6+6, 12+12; mg/kg+mg/kg/hr) produced an APTT increase of about 2.8 times control.

[2] = system: panel of 40 receptors and enzymes; assay: Panel of 40 receptors and enzymes (MDS Panlabs Pharmacology Services)

inhibition or enhancement of receptor and enzyme activities [2]: No significant inhibition or enhancement
Compound: CC(C)(C)NC(=O)N1CCN(C(=O)N2C(=O)[C@H](CCCNC(=N)N)[C@H]2C(=O)O)CC1 [Example 4]
inhibition (reduction in thrombus weight) ([1]; i.v. 0.2+0.2 mg/kg+mg/kg/hr, FIG. 3): about 38% | dose dependence of thrombus weight reduction ([1]; i.v. 0.2+0.2 to 6+6 mg/kg+mg/kg/hr): Dose-dependent reductions | reduction in thrombus weight ([1]; i.v. 6+6 mg/kg+mg/kg/hr, FIG. 3): approximately 90% | effect on ex vivo PT (rat plasma (ex vivo PT)): unaltered
